Reference: patent publication US20080260838A1 (priority 2003, published 2008)

What was measured:
DPP-IV = target: T1, DPP-IV (Rattus norvegicus, UniProt P14740); assay: DPP-IV activity, cleavage of luminescent Gly-Pro substrate in bronchial lung lavage fluid; type: biochemical; details: aprotinin 1, 2, 3, 4 and 5 TIU/ml
T1 construct: from tissue; host or cells: rat bronchial lung lavage fluid
Protocol: Aprotinin, a naturally occurring serine protease inhibitor, which is known in the art to inhibit protein degradation was added to the samples post collection at 1, 2, 3, 4 and 5 TIU/ml. DPP-IV activity was then measured by detecting the cleavage of a luminescent substrate containing the DPP-IV recognized Gly-Pro sequence. Bronchial lung lavage fluid was incubated with proluminescent substrate for 30 min and cleavage product was detected by luminescence.

[1] = system: Rat pancreatic epithelial (ARIP) cells; assay: Staurosporine-induced cell death in ARIP cells (Cell Titer-Glo); type: cell-based; details: GLP-1 up to 10 nM, 5 μM staurosporine […]
Protocol: Cell viability was evaluated using Cell Titer-Glo™ (Promega, Madison, Wis.).
The formulations were analyzed for their ability to inhibit staurosporine-induced cell death in ARIP cells.
All of the results shown are averages of triplicate runs.

β-cell mass = assay: Effect on β-cell mass, cells treated at day 1, 3 and 5; type: cell-based; details: cells treated with GLP-1/FDKP versus untreated cells
[2] = system: Rat pancreatic epithelial (ARIP) cells; assay: Apoptosis by FACS analysis using Annexin V staining; type: cell-based; details: 15 nM GLP-1, 1 μM staurosporine 4 hrs
Text: Annexin V staining is a useful tool in detecting apoptotic cells and is well known to those of skill in the art. Binding of Annexin V to the cell membrane, allows for the analysis of changes in […] (PS) asymmetry before morphological changes associated with apoptosis occurred and before membrane integrity is lost.

T1 sequence (P14740 whole entry): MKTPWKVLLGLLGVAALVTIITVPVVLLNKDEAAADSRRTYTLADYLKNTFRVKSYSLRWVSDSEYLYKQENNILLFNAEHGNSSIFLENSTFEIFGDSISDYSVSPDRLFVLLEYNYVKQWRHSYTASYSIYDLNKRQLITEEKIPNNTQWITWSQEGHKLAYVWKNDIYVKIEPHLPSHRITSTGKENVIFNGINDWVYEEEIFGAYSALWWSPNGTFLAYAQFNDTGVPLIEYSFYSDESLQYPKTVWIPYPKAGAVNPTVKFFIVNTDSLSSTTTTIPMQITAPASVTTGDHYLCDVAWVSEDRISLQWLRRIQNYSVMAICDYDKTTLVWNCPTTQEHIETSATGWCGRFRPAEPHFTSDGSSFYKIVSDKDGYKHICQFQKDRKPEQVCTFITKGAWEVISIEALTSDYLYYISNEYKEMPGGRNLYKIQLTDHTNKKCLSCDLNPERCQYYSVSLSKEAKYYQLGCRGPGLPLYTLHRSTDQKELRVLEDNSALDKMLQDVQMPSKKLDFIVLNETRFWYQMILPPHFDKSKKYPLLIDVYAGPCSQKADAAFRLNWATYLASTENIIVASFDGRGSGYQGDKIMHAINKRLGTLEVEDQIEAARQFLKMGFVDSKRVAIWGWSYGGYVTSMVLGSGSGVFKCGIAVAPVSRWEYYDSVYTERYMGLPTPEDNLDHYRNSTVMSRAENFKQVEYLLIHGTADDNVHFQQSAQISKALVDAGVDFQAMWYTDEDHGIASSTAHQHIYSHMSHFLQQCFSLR

Substance	inhibition of DPP-IV activity (DPP-IV)	percent of cell death [1]	increase in β-cell mass (β-cell mass)	inhibition of staurosporine induced apoptosis [2]
aprotinin	increase in inhibition of DPP-IV activity			
GLP-1		decrease in the percent of cell death	up to 2 fold	about 40%
